Results: patent US12616692B2, “Method of achieving HIV viral remission using long-acting antiretroviral agents” (ViiV Healthcare Company, priority 2020, dated 2026)

Legend:
[1] = rhesus monkey, in vivo
[2] = 50 mg/kg CAB LA, 200 mg/kg RPV intramuscularly once a month; cited from earlier work
[3] = system: HIV; conditions: cited from earlier work

| Compound | Time after the last dose over which plasma concentration declined to undetectable levels (remained detected) [1] | Plasma concentration relative to protein-adjusted concentration required for 90% viral inhibition [2] | Protein-adjusted concentration required for 90% viral inhibition [3] |
| --- | --- | --- | --- |
| C[C@H]1CO[C@@H]2Cn3cc(C(=O)NCc4ccc(F)cc4F)c(=O)c(O)c3C(=O)N12 [CAB, cabotegravir] | 4-7 months | well above | 0.166 µg/mL |
| Cc1cc(/C=C/C#N)cc(C)c1Nc1ccnc(Nc2ccc(C#N)cc2)n1 [RPV, rilpivirine] | 4-7 months | well above |  |
